Data set [1] can be described thus: EPR spin trapping (DMPO/H2O2), ROS generation in cell-free media. The following applies: DMPO/H2O2 aqueous system. As to the method: (§1) The generation of paramagnetic intermediates was monitored by cw-EPR spectroscopy using the EMXplus spectrometer and spin trapping technique. Deionised water was used for preparation of aqueous solutions. The spin trapping agent 5,5-dimethyl-1-pyrroline N-oxide (DMPO; Sigma-Aldrich) was distilled prior to the application. The EPR spectra were measured with following experimental parameters: X-band, room temperature, microwave frequency, 9.448 GHz; 100 kHz field modulation amplitude, 2 G; time constant, 10 ms; scan time, 21 s (three scans). Glutathione from Sigma-Aldrich; 6-hydroxy-2,5,7,8-tetramethylchroman-2-carboxylic acid (Trolox, 97%, Sigma-Aldrich); K2S2O8 (p.a. purity, Merck); 2,2′-azinobis [3-ethylbenzothiazoline-6-sulfonic acid] (ABTS; purum, >99%; Fluka) were used as received. Deionised high-purity grade H2O, with conductivity of […], was produced by using the TKA H2O purification system (Water Purification Systems GmbH, D-Niederelbert). For the ABTS decolourisation assay, the radical cations were pre-formed by the reaction of an aqueous solution of K2S2O8 (3.30 mg) in H2O (5 mL) with ABTS (17.2 mg). The resulting bluish-green radical cation (ABTS^•+) solution was stored overnight in the dark. […] The optical spectra were recorded from 1 to 40 min in 1 cm quartz UV cuvette after mixing the sample water/DMSO solution with ABTS^•+ in mixed solvent water/DMSO (20% (v/v)).

Data set [2] in a line: ABTS decolourisation assay, Trolox equivalent antioxidant capacity. As to conditions: water/DMSO (20% v/v), absorbance at 735 nm. As to the method:
as §1

Data set [3] is described as follows: 1H NMR titration, pKa of E/Z isomers. The class given is physicochemical. The following applies: 10% D2O/H2O, cL = 200 μM, I = 0.1 M (KCl), 25 °C. As to the method: ^1H NMR spectroscopic studies were carried out on a Bruker Avance III HD instrument (Bruker BioSpin GmbH, Rheinstetten, Germany). All spectra were recorded with the WATERGATE water suppression pulse scheme using DSS internal standard.

Like-named read-outs stand apart in the source and are kept apart here.

Broadly, the pKa is the pH at which an ionisable group is half protonated. For `C[N+](C)(C)Cc1ccc(O)c(/C=N/NC(N)=S)c1` [[H2L^H]Cl], in data set [1], the radical formation result is “no radical formation”. Also, the “Trolox equivalent antioxidant capacity (TEAC)” value in data set [2] was 0.74. Also, the figures for the pKa in data set [3] (read-out: pKa of major E isomer) and in data set [3] (read-out: pKa of minor Z isomer) were 7.51 and 6.95, respectively.

Values taken from paper PMC7565988, “Insight into the Anticancer Activity of Copper(II) 5-Methylenetrimethylammonium-Thiosemicarbazonates and Their Interaction with Organic Cation Transporters” (Biomolecules, 2020).
